Test results: US10220112B2, “Cyclic antimicrobial pseudopeptides and uses thereof” (INSERM (INSTITUT NATIONAL DE LA SANTE ET DE LA RECHERCHE …, priority 2014, dated 2019)
≈ marks a conversion by molar mass, not a printed value.

What was measured:
[1] = test system: human erythrocytes; assay: Lytic activity against human erythrocytes; format: cell-based; settings: Table 2; for Human cells H50: maximal concentration 500 μM
Description: Human blood was collected from EFS (‘Etablissement Francais du Sang’) in Rennes (France). […] After centrifugation, the absorbance of the supernatant was measured at 414 nm. Three wells were positive controls, where the RBC were mixed with water 1% Triton X-100, in these wells the totality of RBC were hemolyzed and the release of hemoglobin was considered to be 100%. Three wells were negative controls, where the RBC were mixed with PBS buffer, in these wells hemolysis was considered to be null. The percentage of hemolysis in each test well was calculated by comparing with controls. For each peptide, bloods from three different donors were tested.

[2] = test system: VISA strain S. aureus Mu 50; assay: microbe, parasite or virus in culture; settings: Staphylococcus aureus, read-out: VISA MIC
[3] = test system: MRSA strain S. aureus N315; assay: microbe, parasite or virus in culture; settings: Staphylococcus aureus, read-out: MRSA MIC
[4] = test system: E. coli strain ML-35p; assay: E. coli outer and inner membrane permeabilization assays (nitrocefin / ONPG); format: cell-based, Escherichia coli
Description: E. coli outer and inner membrane permeability was determined by using E. coli strain ML-35p, which is lactose permease deficient. Nitrocefin, β-lactam is excluded by the outer cell membrane but, if it can pass this barrier thanks to the action of an AMP, it is then cleaved by the β-lactamase localized within the periplasm. ONPG, passes through lac permease and is cleaved by the cytoplasmic β-galactosidase, however with the ML-35p E. coli strain, ONPG is excluded unless permeabilization is achieved. The permeabilization assays were carried out with 100 μL of bacteria in MH broth at A600 nm 0.1-0.2 (10^7 cfu/mL, density necessary to detect degradation products). […] ONPG was added to a 100 μg/ml final concentration and substrate cleavage was monitored by light absorption measurements at 420 nm. Polymixin B at 8 μM against 10^7 cfu/mL was used as positive control. Bacterial suspension in MH broth plus substrates was used as negative control (untreated cells).

## COc1cccc(OC)c1C(=O)N[C@@H]1C(=O)N2[C@@H]1SC(C)(C)[C@@H]2C(=O)O [Meticillin, reference compound]
[1]
  Human cells % hemolysis at 500 μM: 0.12%
  Human cells H50: nd (not detectable at the maximal concentration tested (500 μM))
[2]
  MIC: > 500 µM

## CN[C@H](CC(C)C)C(=O)N[C@H]1C(=O)N[C@@H](CC(N)=O)C(=O)N[C@H]2C(=O)N[C@H]3C(=O)N[C@H](C(=O)N[C@H](C(=O)O)c4cc(O)cc(O)c4-c4cc3ccc4O)[C@H](O)c3ccc(c(Cl)c3)Oc3cc2cc(c3O[C@@H]2O[C@H](CO)[C@@H](O)[C@H](O)[C@H]2O[C@H]2C[C@](C)(N)[C@H](O)[C@H](C)O2)Oc2ccc(cc2Cl)[C@H]1O [Vancomycin, reference compound]
[1]
  Human cells % hemolysis at 500 μM: 0.15%
  Human cells H50: nd (not detectable at the maximal concentration tested (500 μM))
[3]
  MIC: 32 µM (≈ 46.4 µg/mL)
[2]
  MIC: 1 µM (≈ 1.45 µg/mL)

## polymixin B
[4]; ONPG, polymixin B 8 μM, peptides 6 μM and 12 μM
  time to detection of the reporter, inner membrane: 20 min
[4]; nitrocefin, polymixin B at 8 μM
  time to detection of the reporter, outer membrane: 30 s
